Where two headings read alike, the source gives them in different places.
Tests used:
AktK = AktK (Homo sapiens, UniProt P31749); assay: Luciferase-coupled chemiluminescence kinase assay (ATP consumption); type: biochemical; settings: read-out: AKT-1 IC50
How it was run: (§1)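 Enzyme at 2.5-5 nM was preincubated 30 min at room temperature with compound in Tris pH 7.5, MgCl2, TX-100, DTT, then reacted with ATP for 3 h at ambient temperature. Remaining ATP was quantified by luciferase-luciferin chemiluminescence, with consumption kept at 25-60%; […].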

p70S6K = p70S6K (Homo sapiens, UniProt P23443); assay: as above; type: biochemical
How it was run: as §1

Sequence of p70S6K (P23443 whole entry): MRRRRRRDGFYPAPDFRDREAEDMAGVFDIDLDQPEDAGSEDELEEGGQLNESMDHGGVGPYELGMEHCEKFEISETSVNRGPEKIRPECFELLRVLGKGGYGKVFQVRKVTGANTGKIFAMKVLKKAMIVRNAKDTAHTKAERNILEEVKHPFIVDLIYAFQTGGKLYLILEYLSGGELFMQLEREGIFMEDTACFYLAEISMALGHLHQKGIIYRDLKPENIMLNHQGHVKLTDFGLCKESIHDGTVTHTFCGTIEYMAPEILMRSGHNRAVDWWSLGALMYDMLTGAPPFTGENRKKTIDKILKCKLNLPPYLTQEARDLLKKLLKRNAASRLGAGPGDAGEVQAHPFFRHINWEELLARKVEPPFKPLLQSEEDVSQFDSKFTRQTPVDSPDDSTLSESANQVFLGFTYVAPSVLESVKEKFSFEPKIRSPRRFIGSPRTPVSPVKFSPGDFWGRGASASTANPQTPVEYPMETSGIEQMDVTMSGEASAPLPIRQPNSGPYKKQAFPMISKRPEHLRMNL
Sequence of AktK (P31749 whole entry): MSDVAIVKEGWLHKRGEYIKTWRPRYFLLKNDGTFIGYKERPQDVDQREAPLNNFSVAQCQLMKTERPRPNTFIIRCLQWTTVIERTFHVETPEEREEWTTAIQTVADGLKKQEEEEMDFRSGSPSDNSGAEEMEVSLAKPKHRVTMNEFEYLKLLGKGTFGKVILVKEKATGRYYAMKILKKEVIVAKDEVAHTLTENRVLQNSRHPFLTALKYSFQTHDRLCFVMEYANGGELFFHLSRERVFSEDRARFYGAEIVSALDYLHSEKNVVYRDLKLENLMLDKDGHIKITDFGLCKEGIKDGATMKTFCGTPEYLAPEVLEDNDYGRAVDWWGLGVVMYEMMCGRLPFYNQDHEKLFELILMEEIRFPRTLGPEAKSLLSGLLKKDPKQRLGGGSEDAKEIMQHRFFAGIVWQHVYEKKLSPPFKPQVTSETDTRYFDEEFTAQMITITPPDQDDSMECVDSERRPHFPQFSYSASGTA

SMILES | IC50 (AktK; Table 1, class symbols per key) [nM] | IC50 (p70S6K; Table 1, class symbols per key) [nM] | IC50 (AktK) [nM] | IC50 (p70S6K) [nM]
Cc1c(CCCN2CCCCC2)cc(Cl)cc1N1CCN(c2ncnc3[nH]nc(C(F)(F)F)c23)CC1 [Entry 100, 4-{4-[5-chloro-2-methyl-3-(3-piperidin-1-ylpropyl)phenyl]piperazin-1-yl}-3-(trifluoromethyl)-1H-pyrazolo[3,4-d]pyrimidine] | 100 to 1000 | < 100 |  | 
Cc1ccc(Cl)cc1N1CCN(c2ncnc3[nH]nc(-c4cccc(C(=O)O)c4)c23)CC1 [Entry 340, 3-{4-[4-(5-chloro-2-methylphenyl)piperazin-1-yl]-d1H-pyrazolo[3,4-]pyrimidin-3-yl}benzoic acid] |  |  | 1000 to 10000 | 1000 to 10000
Brc1n[nH]c2ncnc(N3CCN(c4ccc(OCc5ccccc5)cc4)CC3)c12 [Entry 125, 3-bromo-4-(4-{4-[(phenylmethyl)oxy]phenyl}piperazin-1-yl)-1H-pyrazolo[3,4-d]pyrimidine] | ≥ 10000 | 100 to 1000 |  | 
CCN1CCN(CCCOc2cc(Cl)cc(N3CCN(c4ncnc5[nH]nc(Br)c45)CC3)c2C)CC1 [Entry 86, 3-bromo-4-[4-(5-chloro-3-{[3-(4-ethylpiperazin-1-yl)propyl]oxy}-2-methylphenyl)piperazin-1-yl]-1H-pyrazolo[3,4-d]pyrimidine] | < 100 | < 100 |  | 
FC(F)(F)c1ccnc(N2CCN(c3ncnc4[nH]nc(Br)c34)CC2)n1 [Entry 118, 3-bromo-4-{4-[4-(trifluoromethyl)pyrimidin-2-yl]piperazin-1-yl}-1H-pyrazolo[3,4-d]pyrimidine] | ≥ 10000 | 100 to 1000 |  | 
Cc1ccc(N2CCN(c3ncnc4[nH]nc(Br)c34)CC2)cc1C [Entry 96, 3-bromo-4-[4-(3,4-dimethylphenyl)piperazin-1-yl]-1H-pyrazolo[3,4-d]pyrimidine] | ≥ 10000 | 100 to 1000 |  | 
CC(=O)c1cc(NCCN2CCCC2)c(C)c(N2CCN(c3ncnc4[nH]nc(Br)c34)CC2)c1 [Entry 252, 1-{3-[4-(3-bromo-1H-pyrazolo[3,4-d]pyrimidin-4-yl)piperazin-1-yl]-4-methyl-5-[(2-pyrrolidin-1-ylethyl)amino]phenyl}ethanone] | < 100 | < 100 |  | 
Cc1ccc(N2CCN(c3ncnc4[nH]nc(Br)c34)CC2)cc1CCCN1CCCC1 [Entry 67, 3-bromo-4-{4-[4-methyl-3-(3-pyrrolidin-1-ylpropyl)phenyl]piperazin-1-yl}-1H-pyrazolo[3,4-d]pyrimidine] | 1000 to 10000 | 100 to 1000 |  | 
Cc1c(NCCN2CCCC2)cc(OCC(F)(CF)CF)cc1N1CCN(c2ncnc3[nH]nc(Br)c23)CC1 [Entry 230, 3-[4-(3-bromo-1H-pyrazolo[3,4-d]pyrimidin-4-yl)piperazin-1-yl]-5-{[2,3-difluoro-2-(fluoro-methyl)propyl]oxy}-2-methyl-N-(2-pyrrolidin-1-ylethyl)aniline] | < 100 | < 100 |  | 
Cc1ccc(Cl)cc1N1CCN(c2ncnc3[nH]nc(-c4cccc(N)c4)c23)CC1 [Entry 339, 3-{4-[4-(5-chloro-2-methylphenyl)piperazin-1-yl]-1H-pyrazolo[3,4-d]pyrimidin-3-yl}aniline] |  |  | 1000 to 10000 | 100 to 1000
CCc1n[nH]c2ncnc(N3CCN(c4cc(Cl)c(O)cc4C)CC3)c12 [Entry 381, 2-chloro-4-[4-(3-ethyl-1H-pyrazolo[3,4-d]pyrimidin-4-yl)piperazin-1-yl]-5-methylphenol] |  |  | 1000 to 10000 | < 100
Cc1c(NCCN2CCCC2)cc(COCC(F)(F)F)cc1N1CCN(c2ncnc3[nH]nc(Br)c23)CC1 [Entry 280, 3-[4-(3-bromo-1H-pyrazolo[3,4-d]pyrimidin-4-yl)piperazin-1-yl]-2-methyl-N-(2-pyrrolidin-1-yl-ethyl)-5-{[(2,2,2-trifluoroethyl)oxy]methyl}aniline] | < 100 | < 100 |  | 
Cc1c(OCCC2CCN(C)CC2)cc(Cl)cc1N1CCN(c2ncnc3[nH]nc(C(F)(F)F)c23)CC1 [Entry 91, 4-[4-(5-chloro-2-methyl-3-{[2-(1-methylpiperidin-4-yl)ethyl]oxy}phenyl)piperazin-1-yl]-3-(tri-fluoromethyl)-1H-pyrazolo[3,4-d]pyrimidine] | 100 to 1000 | < 100 |  | 
Cc1ccc(C(=O)NCC(C)C)cc1N1CCN(c2ncnc3[nH]nc(Cl)c23)CC1 [Entry 197, 3-[4-(3-chloro-1H-pyrazolo[3,4-d]pyrimidin-4-yl)piperazin-1-yl]-4-methyl-N-(2-methylpropyl)benzamide] | 1000 to 10000 | < 100 |  | 
Cc1c(NCCN2CCCC2)cc(C(=O)c2ccccc2)cc1N1CCN(c2ncnc3[nH]nc(Br)c23)CC1 [Entry 236, {3-[4-(3-bromo-1H-pyrazolo[3,4-d]pyrimidin-4-yl)piperazin-1-yl]-4-methyl-5-[(2-pyrrolidin-1-ylethyl)amino]phenyl}(phenyl)methanone] | < 100 | < 100 |  | 
Cc1c(NCCN2CCCC2)cc(OCC(F)(F)F)cc1N1CCN(c2ncnc3[nH]nc(Br)c23)CC1 [Entry 285, 3-[4-(3-bromo-1H-pyrazolo[3,4-d]pyrimidin-4-yl)piperazin-1-yl]-2-methyl-N-(2-pyrrolidin-1-ylethyl)-5-[(2,2,2-trifluoroethyl)oxy]aniline] | < 100 | < 100 |  | 
Brc1n[nH]c2ncnc(N3CCN(c4ncccn4)CC3)c12 [Entry 108, 3-bromo-4-(4-pyrimidin-2-ylpiperazin-1-yl)-1H-pyrazolo[3,4-d]pyrimidine] | ≥ 10000 | 100 to 1000 |  | 
Cc1c(OCCN2CCOCC2)cc(Cl)cc1N1CCN(c2ncnc3[nH]nc(C(F)(F)F)c23)CC1 [Entry 41, 4-(4-{5-chloro-2-methyl-3-[(2-morpholin-4-ylethyl)oxy]phenyl}piperazin-1-yl)-3-(trifluoromethyl)-1H-pyrazolo[3,4-d]pyrimidine] | 1000 to 10000 | < 100 |  | 
CCc1n[nH]c2ncnc(N3CCN(c4ccc(OCCN5CCOCC5)c(Cl)c4)CC3)c12 [Entry 345, 4-(4-{3-chloro-4-[(2-morpholin-4-ylethyl)oxy]phe-nyl}piperazin-1-yl)-3-ethyl-1H-pyrazolo[3,4-d]pyrimidine] |  |  | ≥ 10000 | 1000 to 10000
Cc1c(OCCCN2CCCCC2)cc(Cl)cc1N1CCN(c2ncnc3[nH]nc(Br)c23)CC1 [Entry 37, 3-bromo-4-(4-{5-chloro-2-methyl-3-[(3-piperidin-1-ylpropyl)oxy]phenyl}piperazin-1-yl)-1H-pyrazolo[3,4-d]pyrimidine] | 100 to 1000 | < 100 |  | 
CNC(=O)c1ccc(C)c(N2CCN(c3ncnc4[nH]nc(Br)c34)CC2)c1 [Entry 188, 3-[4-(3-bromo-1H-pyrazolo[3,4-d]pyrimidin-4-yl)piperazin-1-yl]-N,4-dimethylbenzamide] | 100 to 1000 | < 100 |  | 
Cc1c(OCCCN2CCCC2)cc(Cl)cc1N1CCN(c2ncnc3[nH]nc(C(F)(F)F)c23)CC1 [Entry 68, 4-(4-{5-chloro-2-methyl-3-[(3-pyrrolidin-1-ylpropyl)oxy]phenyl}piperazin-1-yl)-3-(trifluoromethyl)-1H-pyrazolo[3,4-d]pyrimidine] | 100 to 1000 | < 100 |  | 
Clc1ccc(N2CCN(c3ncnc4[nH]nc(Br)c34)CC2)c(Cl)c1 [Entry 77, 3-bromo-4-[4-(2,4-dichlorophenyl)piperazin-1-yl]-1H-pyrazolo[3,4-d]pyrimidine] | ≥ 10000 | 100 to 1000 |  | 
